Consider six molecules from patent US5468730A, “Methods for the treatment of non-IgE-mediated diseases” (Dura Pharmaceuticals, Inc., priority 1992, dated 1995).

In data set [1] the test system is sheep erythrocyte (SRBC)-induced DTH reactions. Put plainly: Sheep erythrocyte (SRBC)-induced DTH footpad swelling in mice. Format: in vivo, female Balb/C mice. The note with it: indomethacin 1.0 mg/kg on day 4 (positive control); footpad volume about 24 h after challenge.
For data set [2], the system named is carrageenan-induced inflammation. Put plainly: Carrageenan-induced footpad edema in mice. Format: in vivo, female Balb/C mice. As to the method: In order to examine the ability of pentigetide to inhibit carrageenan-induced inflammation, female Balb/C mice were injected with 0.025 ml of 1.0% carrageenan solution (type 1x carrageenan: Sigma No. C-1013, Lot No. 86F-0698) or saline in the right hind footpad 5 minutes after intravenous tail vein injection of 0.2 ml pentigetide (1.0 mg/kg) or saline solution.

Data set [3] concerns Tetanus toxoid-induced DTH reactions. Details: species or system female Balb/C mice. As to conditions: mouse, in vivo.
Data set [4] deals with immune complex-induced colitis. As to the kind of experiment: Immune complex-mediated ulcerative colitis model (formalin + IgG immune complexes) in mice. Format: in vivo, male BKA mice (outbred Swiss albino). On the procedure:
A mouse model of intestinal inflammation was employed wherein the efficacy of pentigetide in reducing inflammation induced by formalin and complement-fixing IgG immune complexes was measured. This model is particularly useful as a model of human ulcerative colitis and shares many clinical and histological functions of the human disease including sensitivity to glucocorticoids, sulfasalazine and 5-aminosalicylic acid (see L. P. Walsh, et al., British J. Pharm. 91:294 (1987); A. Blackham, et al., British J. Pharm. 89:694 (1986); L. D. Walsh and I. J. Zeitlin, British J. Pharm. 92:741 (1987)). The mouse model of intestinal inflammation used in these studies is induced by the exposure of the animals to chemicals which are known to trigger inflammatory processes in both animals and humans. […]
Colonic tissue water content was determined by tissue weight loss on drying of colonic tissues. […]
The response to immune complex alone was determined quantitatively by subtracting the mean value in group B from the mean value in group C. An estimate of the percentage reduction in this response produced by the drug was calculated as: [formula] […] Statistical significance was determined using the non-parametric Mann-Whitney U-test. […]

Data set [5] concerns binding of IgE to lymphoblastoid tissue culture cells. The note with it: two trials; reported in U.S. Pat. No. 4,161,522; cited from earlier work.
Data set [6] deals with chronic idiopathic urticaria (non-IgE-mediated). The note with it: human, in vivo.

Several values for one entry are separate records, joined by “and”; a condition that tells them apart may be missing. Equal values may be shown once. No end group written: not given here.

On to `COc1ccc2c(c1)c(CC(=O)O)c(C)n2C(=O)c1ccc(Cl)cc1` [Indomethacin, indomethacin], for which the inhibition in data set [1] turned out to be 43%; in data set [3], 45%. The “Percent Inhibition” value is listed as -35% in data set [2] (1.0 hours after carrageenan injection, indomethacin 10 mg/kg s.c. 24 hours prior to carrageenan); -60% in data set [2] (2.0 hours after carrageenan injection, indomethacin 10 mg/kg s.c.); -39% in data set [2] (4.0 hours after carrageenan injection, indomethacin 10 mg/kg s.c.); -47% in data set [2] (6.0 hours after carrageenan injection, indomethacin 10 mg/kg s.c.).

For the molecule `C[C@]12C=CC(=O)C=C1CC[C@@H]1[C@@H]2[C@@H](O)C[C@@]2(C)[C@H]1CC[C@]2(O)C(=O)CO` [prednisolone], in data set [4] (prednisolone 5.0 mg/kg i.p. for three days prior to inflammation induction and daily thereafter, p<0.01), the “reduction of colonic edema” value came to 86.2%. In data set [4] (prednisolone 5.0 mg/kg i.p., p<0.001), the “reduction of colonic edema (printed in the colitic sign score paragraph)” value worked out at 93.8%.

With “Asn-Ser-Asn-Pro-Arg (NSNPR; printed: Asn-Ser-Asn-Pro-Arg) [peptide reported in U.S. Pat. No. 4,161,522]”, in data set [5], the “activity: ability to block binding of IgE to lymphoblastoid tissue culture cells” value (“activity: ability to block binding” below) is given as “lower activity”.

“Asn-Ser-Asp-Pro-Arg (NSDPR; printed: Asn-Ser-Asp-Pro-Arg) [peptide reported in U.S. Pat. No. 4,161,522]”: the “activity: ability to block binding” value in data set [5] is given as “lower activity”.

As to “DSDPR [pentigetide, Asp-Ser-Asp-Pro-Arg]”, the “side effects from the treatment” value in data set [6] is on record as “did not experience any side effects”.

[-Cys-Ala-Asn-Ser-Asn-Pro-Arg]2: the “activity: ability to block binding” value in data set [5] is 9% and 12%.
